Results published in ChEMBL document CHEMBL1201862, “PubChem BioAssay data set” (2004).
The source made the active and inactive calls.

What was measured:
[1] = molecular target: T1, Sentrin-specific protease 7 (Homo sapiens, UniProt Q9BQF6); type: functional;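 also: Luminescence-based dose-response confirmation of ultra-high-throughput screening hits, measuring inhibition of SENP7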
T1 sequence (Q9BQF6 whole entry): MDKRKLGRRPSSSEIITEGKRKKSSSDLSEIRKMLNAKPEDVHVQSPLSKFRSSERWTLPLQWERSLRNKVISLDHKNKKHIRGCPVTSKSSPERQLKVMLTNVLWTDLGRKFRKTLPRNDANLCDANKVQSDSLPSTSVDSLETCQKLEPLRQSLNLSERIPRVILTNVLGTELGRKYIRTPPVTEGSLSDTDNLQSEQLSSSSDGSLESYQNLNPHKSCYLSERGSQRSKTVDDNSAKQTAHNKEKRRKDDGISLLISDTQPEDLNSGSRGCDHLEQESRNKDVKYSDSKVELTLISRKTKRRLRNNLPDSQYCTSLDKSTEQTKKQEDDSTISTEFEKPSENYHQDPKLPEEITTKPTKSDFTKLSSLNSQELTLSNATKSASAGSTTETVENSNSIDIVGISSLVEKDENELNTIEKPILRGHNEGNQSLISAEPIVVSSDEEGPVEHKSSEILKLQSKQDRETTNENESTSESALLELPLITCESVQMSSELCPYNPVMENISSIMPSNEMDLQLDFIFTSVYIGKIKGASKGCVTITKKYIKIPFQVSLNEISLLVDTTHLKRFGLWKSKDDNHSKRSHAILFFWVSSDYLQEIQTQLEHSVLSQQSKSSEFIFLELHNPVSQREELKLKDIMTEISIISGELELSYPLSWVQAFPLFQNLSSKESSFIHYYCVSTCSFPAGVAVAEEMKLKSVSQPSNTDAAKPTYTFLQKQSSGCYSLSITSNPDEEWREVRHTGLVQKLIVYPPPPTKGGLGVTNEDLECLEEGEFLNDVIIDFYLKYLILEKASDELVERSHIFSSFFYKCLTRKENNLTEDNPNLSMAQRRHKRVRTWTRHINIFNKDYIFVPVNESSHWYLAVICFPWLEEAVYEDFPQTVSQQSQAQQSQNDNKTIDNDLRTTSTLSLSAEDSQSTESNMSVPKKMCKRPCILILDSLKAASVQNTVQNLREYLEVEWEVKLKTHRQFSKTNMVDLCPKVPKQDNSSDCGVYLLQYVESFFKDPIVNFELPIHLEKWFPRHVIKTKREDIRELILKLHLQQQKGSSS

[2] = molecular target: T2, Sentrin-specific protease 6 (Homo sapiens, UniProt Q9GZR1); type: functional;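 also: Luminescence-based dose-response confirmatory assay of SENP6 inhibition, following up an ultra-high-throughput screen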
T2 sequence (Q9GZR1 whole entry): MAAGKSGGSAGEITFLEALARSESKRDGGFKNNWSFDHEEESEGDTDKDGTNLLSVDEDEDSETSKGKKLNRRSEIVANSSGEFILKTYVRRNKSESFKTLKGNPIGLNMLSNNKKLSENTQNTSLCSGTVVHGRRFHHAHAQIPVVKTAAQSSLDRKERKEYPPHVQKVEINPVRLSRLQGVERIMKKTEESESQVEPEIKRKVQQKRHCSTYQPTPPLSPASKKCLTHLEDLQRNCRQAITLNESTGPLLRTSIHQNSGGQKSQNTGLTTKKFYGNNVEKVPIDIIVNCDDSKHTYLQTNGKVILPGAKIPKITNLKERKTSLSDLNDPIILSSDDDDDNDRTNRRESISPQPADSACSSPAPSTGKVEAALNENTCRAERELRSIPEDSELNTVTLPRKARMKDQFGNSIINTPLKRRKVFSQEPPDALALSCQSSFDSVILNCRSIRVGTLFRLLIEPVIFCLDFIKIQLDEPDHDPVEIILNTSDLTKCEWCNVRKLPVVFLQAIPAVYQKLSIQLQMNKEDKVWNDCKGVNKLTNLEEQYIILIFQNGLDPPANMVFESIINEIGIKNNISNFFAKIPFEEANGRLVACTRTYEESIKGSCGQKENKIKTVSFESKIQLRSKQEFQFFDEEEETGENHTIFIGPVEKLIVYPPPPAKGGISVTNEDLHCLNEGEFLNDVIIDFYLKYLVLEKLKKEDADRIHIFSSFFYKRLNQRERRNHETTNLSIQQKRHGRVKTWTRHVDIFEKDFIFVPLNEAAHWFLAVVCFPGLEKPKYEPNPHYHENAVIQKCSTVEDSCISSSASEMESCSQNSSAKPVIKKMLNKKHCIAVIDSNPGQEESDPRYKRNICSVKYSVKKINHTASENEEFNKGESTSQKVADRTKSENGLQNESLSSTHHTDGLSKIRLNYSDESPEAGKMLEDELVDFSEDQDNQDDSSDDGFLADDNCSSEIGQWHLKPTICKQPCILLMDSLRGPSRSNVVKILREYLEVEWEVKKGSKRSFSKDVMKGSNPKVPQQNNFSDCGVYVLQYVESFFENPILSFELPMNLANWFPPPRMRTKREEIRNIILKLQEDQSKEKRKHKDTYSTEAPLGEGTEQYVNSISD

[3] = molecular target: T3, Caspase-3 (Homo sapiens, UniProt P42574); type: functional;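 also: Dose-response selectivity test against caspase-3 for candidate inhibitors of sentrin-specific proteases (SENPs)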
T3 sequence (P42574 whole entry): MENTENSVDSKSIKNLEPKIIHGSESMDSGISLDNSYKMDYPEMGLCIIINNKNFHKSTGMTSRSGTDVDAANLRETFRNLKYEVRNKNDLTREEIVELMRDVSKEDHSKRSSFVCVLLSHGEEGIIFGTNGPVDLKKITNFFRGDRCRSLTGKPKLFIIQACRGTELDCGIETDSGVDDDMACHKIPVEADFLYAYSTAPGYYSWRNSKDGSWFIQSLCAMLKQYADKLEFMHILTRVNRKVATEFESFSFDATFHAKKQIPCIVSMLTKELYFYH

[4] = molecular target: T4, Oxysterols receptor LXR-beta (Homo sapiens, UniProt P55055); type: functional, cell-based
T4 sequence (P55055 whole entry): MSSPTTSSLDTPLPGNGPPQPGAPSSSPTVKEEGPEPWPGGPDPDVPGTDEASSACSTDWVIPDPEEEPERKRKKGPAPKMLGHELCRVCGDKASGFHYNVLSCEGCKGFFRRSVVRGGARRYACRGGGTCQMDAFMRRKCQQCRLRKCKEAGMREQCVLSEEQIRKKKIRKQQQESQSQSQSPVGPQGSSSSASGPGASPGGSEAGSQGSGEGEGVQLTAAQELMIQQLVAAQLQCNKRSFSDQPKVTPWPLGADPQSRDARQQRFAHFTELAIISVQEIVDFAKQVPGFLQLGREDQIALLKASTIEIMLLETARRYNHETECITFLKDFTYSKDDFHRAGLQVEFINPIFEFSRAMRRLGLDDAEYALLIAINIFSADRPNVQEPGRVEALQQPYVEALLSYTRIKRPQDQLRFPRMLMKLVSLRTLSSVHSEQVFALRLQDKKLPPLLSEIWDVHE

[5] = molecular target: T4, Oxysterols receptor LXR-beta; assay: LXR agonists, Gal4 luciferase reporter, dose response, counter-screen for ssDAF-12 agonist project, cell-based, luminescence, HEK293, S. stercoralis campaign (AID 720737); type: functional; settings: read-out: IC50 (the source's name)
[6] = molecular target: T5, Sentrin-specific protease 8 (Homo sapiens, UniProt Q96LD8); type: functional;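 also: luminescence read-out of SENP8 inhibition, dose-response confirmation following an ultra-high-throughput screen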
T5 sequence (Q96LD8 whole entry): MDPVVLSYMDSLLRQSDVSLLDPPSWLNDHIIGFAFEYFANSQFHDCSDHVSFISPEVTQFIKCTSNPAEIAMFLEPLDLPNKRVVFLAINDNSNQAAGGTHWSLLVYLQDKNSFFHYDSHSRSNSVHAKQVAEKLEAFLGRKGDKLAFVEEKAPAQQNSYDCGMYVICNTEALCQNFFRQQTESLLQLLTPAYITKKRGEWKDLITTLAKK

[7] = cells
[8] = Luminescence-based cell-based high throughput dose response assay to identify activators of the DAF-12 from the parasite S. stercoralis (ssDAF-12).; type: functional
[9] = molecular target: Induced myeloid leukemia cell differentiation protein Mcl-1 (Homo sapiens, UniProt Q07820); type: functional
[10] = molecular target: Large T antigen (Simian virus 40, UniProt P03070); type: functional, Betapolyomavirus macacae;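 also: Confirmatory-stage PubChem screen for compounds that inhibit SV40 T antigen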
[11] = molecular target: T4, Oxysterols receptor LXR-beta; type: functional, cell-based; remark: listed apart in the source
[12] = molecular target: T6, Aminopeptidase N (Plasmodium falciparum FcB1/Columbia, UniProt O96935); assay: malaria alanyl aminopeptidase activity blockers – biochemical, fluorogenic H-Leu-NHMec substrate, 1536-well (AID 1445); design: species or system Plasmodium falciparum 3D7, 3D7
T6 sequence (O96935 whole entry): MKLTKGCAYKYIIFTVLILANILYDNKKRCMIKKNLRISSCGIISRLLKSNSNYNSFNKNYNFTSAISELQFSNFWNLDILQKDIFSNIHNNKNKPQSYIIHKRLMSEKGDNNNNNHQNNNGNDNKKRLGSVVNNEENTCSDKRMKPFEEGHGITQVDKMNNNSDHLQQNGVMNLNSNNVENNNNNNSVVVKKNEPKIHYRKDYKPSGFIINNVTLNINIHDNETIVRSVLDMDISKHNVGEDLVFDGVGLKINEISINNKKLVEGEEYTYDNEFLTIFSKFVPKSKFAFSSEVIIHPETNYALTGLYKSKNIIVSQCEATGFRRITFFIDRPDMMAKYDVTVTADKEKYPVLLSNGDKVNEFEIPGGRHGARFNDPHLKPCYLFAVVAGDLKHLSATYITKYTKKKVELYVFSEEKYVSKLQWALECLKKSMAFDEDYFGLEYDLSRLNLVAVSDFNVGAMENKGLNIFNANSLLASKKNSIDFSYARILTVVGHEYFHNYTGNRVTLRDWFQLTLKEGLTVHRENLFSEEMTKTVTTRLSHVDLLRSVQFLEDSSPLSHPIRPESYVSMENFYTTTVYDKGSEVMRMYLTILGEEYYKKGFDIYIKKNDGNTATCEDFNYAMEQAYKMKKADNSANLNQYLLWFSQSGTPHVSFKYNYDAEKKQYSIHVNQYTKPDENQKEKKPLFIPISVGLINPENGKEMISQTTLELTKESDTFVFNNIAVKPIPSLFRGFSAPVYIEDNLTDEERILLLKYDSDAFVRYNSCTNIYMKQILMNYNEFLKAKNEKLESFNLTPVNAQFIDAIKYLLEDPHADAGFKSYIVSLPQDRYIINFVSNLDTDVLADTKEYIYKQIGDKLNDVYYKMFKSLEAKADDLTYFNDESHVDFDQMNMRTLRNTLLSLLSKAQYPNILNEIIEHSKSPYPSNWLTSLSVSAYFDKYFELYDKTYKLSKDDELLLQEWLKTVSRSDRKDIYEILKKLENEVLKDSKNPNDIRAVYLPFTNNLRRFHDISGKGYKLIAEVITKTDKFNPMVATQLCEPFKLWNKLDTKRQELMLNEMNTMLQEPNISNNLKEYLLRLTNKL

[13] = OVCAR8 cell viability loss – plate reader, dry powder samples, PAX8 project, dose response (AID 743197); type: functional, cell-based; settings: OVCAR-8
[14] = OVCAR-3 cell viability loss – plate reader, dry powder samples, PAX8 inhibitor project, dose response (AID 743044); type: functional, cell-based
[15] = molecular target: Paired box protein Pax-8 (Homo sapiens, UniProt Q06710); assay: PAX8 transcriptional activity inhibition in RMG-I – RMG-I cells, luciferase, cherry-pick, dose response (AID 687027); type: functional, cell-based;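 also: luciferase reporter driven by Pax8 target thyroperoxidase promoter measured by SteadyGlo luminescence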
[16] = A2780 cell killing – plate reader, dry powder samples, cytotoxicity control, dose response (AID 743046); type: functional, cell-based

Sequence of Paired box protein Pax-8 (Q06710 whole entry): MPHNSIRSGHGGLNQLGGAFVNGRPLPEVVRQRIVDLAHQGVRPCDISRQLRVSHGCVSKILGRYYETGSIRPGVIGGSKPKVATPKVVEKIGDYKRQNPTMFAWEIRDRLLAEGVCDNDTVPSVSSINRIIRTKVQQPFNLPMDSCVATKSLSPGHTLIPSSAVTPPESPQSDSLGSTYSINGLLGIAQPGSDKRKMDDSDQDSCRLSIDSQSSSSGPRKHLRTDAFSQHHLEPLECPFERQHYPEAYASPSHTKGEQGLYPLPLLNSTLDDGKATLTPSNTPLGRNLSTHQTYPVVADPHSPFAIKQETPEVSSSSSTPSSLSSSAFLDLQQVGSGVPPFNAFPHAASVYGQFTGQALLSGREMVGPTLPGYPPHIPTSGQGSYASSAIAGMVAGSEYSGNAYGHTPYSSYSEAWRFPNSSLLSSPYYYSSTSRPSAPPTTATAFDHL
Sequence of Large T antigen (P03070 whole entry): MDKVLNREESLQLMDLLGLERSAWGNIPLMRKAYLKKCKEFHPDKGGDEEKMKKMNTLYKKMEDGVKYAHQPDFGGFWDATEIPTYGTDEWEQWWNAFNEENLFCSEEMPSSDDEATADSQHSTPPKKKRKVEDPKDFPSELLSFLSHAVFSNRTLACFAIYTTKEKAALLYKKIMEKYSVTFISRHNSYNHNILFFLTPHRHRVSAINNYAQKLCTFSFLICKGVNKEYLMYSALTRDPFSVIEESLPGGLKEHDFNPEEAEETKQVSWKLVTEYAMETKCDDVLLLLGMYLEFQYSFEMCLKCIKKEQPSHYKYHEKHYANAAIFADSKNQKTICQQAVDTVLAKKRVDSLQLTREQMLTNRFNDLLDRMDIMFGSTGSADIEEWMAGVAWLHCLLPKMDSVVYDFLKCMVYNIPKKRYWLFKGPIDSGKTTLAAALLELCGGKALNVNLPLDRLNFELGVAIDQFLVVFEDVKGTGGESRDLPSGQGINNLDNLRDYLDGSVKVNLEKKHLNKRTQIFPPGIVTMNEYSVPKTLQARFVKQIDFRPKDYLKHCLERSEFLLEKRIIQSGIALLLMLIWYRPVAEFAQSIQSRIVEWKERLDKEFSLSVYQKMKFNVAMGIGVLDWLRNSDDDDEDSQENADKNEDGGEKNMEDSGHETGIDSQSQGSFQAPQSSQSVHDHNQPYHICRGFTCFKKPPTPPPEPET
Sequence of Induced myeloid leukemia cell differentiation protein Mcl-1 (Q07820 whole entry): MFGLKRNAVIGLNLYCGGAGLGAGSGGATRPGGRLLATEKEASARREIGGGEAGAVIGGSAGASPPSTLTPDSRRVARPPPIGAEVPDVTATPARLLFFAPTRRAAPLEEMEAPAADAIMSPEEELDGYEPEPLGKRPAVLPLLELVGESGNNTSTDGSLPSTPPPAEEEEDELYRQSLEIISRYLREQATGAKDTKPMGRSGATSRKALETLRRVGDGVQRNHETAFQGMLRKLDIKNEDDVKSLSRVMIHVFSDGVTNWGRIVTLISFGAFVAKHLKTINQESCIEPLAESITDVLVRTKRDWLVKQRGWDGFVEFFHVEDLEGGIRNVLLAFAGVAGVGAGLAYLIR

Cc1ccc(Nc2nc(-c3cccnc3)cs2)cc1C
active: IC50 [1] 5.02 µM | IC50 [2] 7.01 µM | IC50 [3] 34.4 µM | IC50 [6] 7.16 µM
inactive: EC50 [4] > 67.6 µM | EC50 [5] > 67.6 µM | EC50 [7] > 67.6 µM | IC50 [8] > 67.6 µM

COc1cc(/C=C2/C(=N)N3N=C(c4ccc(C)cc4)SC3=NC2=O)ccc1O
inactive: EC50 [11] > 67.5 µM
active: IC50 [9] 3.26 µM | IC50 [10] 7.62 µM | IC50 [12] 66.1 µM

Cc1ccccc1S(=O)(=O)N1CC[C@@H]2[C@H](CO)Nc3ccc(-c4cccc(F)c4)cc3[C@@H]21
active: AC50 [13] 46.7 µM | AC50 [14] 53.8 µM | AC50 [15] 13.6 µM | AC50 [16] 0.711 µM

Cc1ccc(-c2noc(-c3ccccc3Br)n2)cc1
inactive: EC50 [4] > 67.5 µM | EC50 [7] > 67.5 µM
